Patent US12350250B2, “Aggrelytes for treating ocular conditions” (The Regents of the University of Colorado, a Body Corporate, priority 2022, dated 2025)

Columns and labels:
Experiment in all cases: Identification of AcK sites in proteins of Aggrelyte-2-treated lens (AcK peptide enrichment, LC-MS/MS)
Design in all cases: key to Fold Change (Aggrelyte-2 vs Control) [Total Sum]: *: were not detected in the control lens but were prominent in the Aggrelyte-2-treated lens
[1] = target: T1, human lens cortical proteins (Homo sapiens, UniProt P32320); details: Cytidine deaminase K51
T1 construct: from tissue; host or cells: cortex of a human lens from a donor, treated ex vivo
T1 sequence (P32320 whole entry): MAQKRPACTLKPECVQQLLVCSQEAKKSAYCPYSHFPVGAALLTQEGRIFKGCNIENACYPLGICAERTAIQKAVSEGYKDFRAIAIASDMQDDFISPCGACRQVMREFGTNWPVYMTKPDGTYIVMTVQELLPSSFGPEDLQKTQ
Experimental: (§1) The AcK modification sites and relative levels at those sites in the Aggrelyte-2-treated and untreated (control) human lens cortical proteins were evaluated in the lens (from a donor) that had the largest overall AcK differential measured by Western blot analysis (blot not shown; densitometric summary in FIG. 14B) and LC-MS/MS (FIG. 15B). Each sample (315 μg) was spiked with 200 ng of acetylated bovine serum albumin (AcBSA) protein standard, reduced, alkylated, and digested with trypsin using a urea-based method and then desalted using a C18 resin before being lyophilized. The samples were then immunoprecipitated according to the manufacturer's protocol for the PTMScan Acetyl-Lysine Motif Kit No. 13416 (Cell Signaling Technology). Peptides were purified with a Pierce C18 spin column (Thermo Fisher Scientific) and dried in a Speed Vac concentrator at 45° C. The peptides were resuspended in 3% acetonitrile in 0.1% formic acid for MS analysis.
(§2) The enriched AcK-bearing peptides were loaded onto a 2 cm PepMap 100 nanoviper trapping column and chromatographically resolved with a 0.075×250 mm, […] Acclaim PepMap RSLC reversed-phase nanocolumn (Thermo Scientific) using a 1290 Infinity II LC system equipped with a nanoadapter (Agilent). The mobile phase consisted of water+0.1% formic acid (A) and 90% aqueous acetonitrile+0.1% formic acid (B). Samples were loaded onto the trapping column at 3.0 μL/min for 3.5 min under initial conditions before being chromatographically separated at an effective flow rate of 330 nL/min using a gradient of 3-8% B over 3 min, 8-30% B over 33 min, and 30-40% B over 4 min at 40° C. The gradient was followed by a column wash at 75% B for 5 min. Data were collected using a 6550 Q-TOF equipped with a nanosource (Agilent Technologies) operated using intensity-dependent CID MS/MS to generate peptide identifications. MS/MS data were collected in positive ion polarity over a mass range of 290-1700 m/z at a scan rate of 8 spectra/second for MS scans and a mass range of 50-1700 m/z at a scan rate of 3 spectra/second for MS/MS scans. All charge states, except singly charged species, were allowed during MS/MS acquisition.
(§3) Tandem mass spectra were extracted, searched, and summarized using PEAKS X+ Studio 10.5 software (Bioinformatics Solutions Inc., Waterloo, Ontario). The spectra were searched against the UniProtKB SwissProt [2022_02] Homo sapiens database, allowing for up to three missed semitryptic cleavages with fixed carbamidomethylation of cysteine and a maximum of four variable modifications of deamidation of asparagine and glutamine, oxidation of methionine and/or acetylation of lysine per peptide. The allowed monoisotopic peptide mass tolerance was ±15.0 ppm, and the MS/MS tolerance was ±0.05 da. A false discovery rate (FDR) filter of 0.5% was used corresponding to a −10 log P score ≥19.3.
(§4) The MS-only level data from the LC-MS/MS analyses were extracted and aligned using Profinder V.B.10.01 software (Agilent Technologies). Retention times, neutral masses, and chemical formulas generated from identified acetyl peptides were used to perform batch-targeted feature extraction. Data were extracted with an ion count threshold of two or more ions, 5000 counts, and a score threshold of 70. The score was based on the quality of the mass accuracy, isotope abundances, and isotope spacing of compounds based on the chemical formula of the target peptides within a specified retention time window. Using the peptide isotope model, charge states 2-6 were allowed with H^+ and Na^+ charge carriers. The retention time window and mass window alignment tolerances were set to 0.4 min and 10 ppm, respectively. The extracted peptide peak areas were then used to determine a fold change value in the treated vs. control samples to help identify potential AcK sites that may be affected by aggrelyte-2. Due to a lack of statistical power, a three-fold change filter was used as a sufficient cutoff to identify potential AcK sites of interest. […]

[2] = target: T2, human lens cortical proteins (Homo sapiens, UniProt P02489); details: for Aggrelyte-2 treated Area: lens of donor
T2 construct: from tissue; host or cells: cortex of a human lens from a donor, treated ex vivo
T2 sequence (P02489 1-173): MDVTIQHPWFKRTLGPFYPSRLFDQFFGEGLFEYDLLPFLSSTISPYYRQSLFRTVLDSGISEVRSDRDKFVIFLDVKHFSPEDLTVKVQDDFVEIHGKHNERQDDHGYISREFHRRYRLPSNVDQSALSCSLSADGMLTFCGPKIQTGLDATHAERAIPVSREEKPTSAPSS
Experimental: as §1, §2, §3, §4

[3] = system: human lens cortical proteins
Experimental: as §1, §2, §3, §4

[4] = target: T3, human lens cortical proteins (Homo sapiens, UniProt Q71U36); details: Tubulin alpha-1A chain K370
T3 construct: from tissue; host or cells: cortex of a human lens from a donor, treated ex vivo
T3 sequence (Q71U36 whole entry): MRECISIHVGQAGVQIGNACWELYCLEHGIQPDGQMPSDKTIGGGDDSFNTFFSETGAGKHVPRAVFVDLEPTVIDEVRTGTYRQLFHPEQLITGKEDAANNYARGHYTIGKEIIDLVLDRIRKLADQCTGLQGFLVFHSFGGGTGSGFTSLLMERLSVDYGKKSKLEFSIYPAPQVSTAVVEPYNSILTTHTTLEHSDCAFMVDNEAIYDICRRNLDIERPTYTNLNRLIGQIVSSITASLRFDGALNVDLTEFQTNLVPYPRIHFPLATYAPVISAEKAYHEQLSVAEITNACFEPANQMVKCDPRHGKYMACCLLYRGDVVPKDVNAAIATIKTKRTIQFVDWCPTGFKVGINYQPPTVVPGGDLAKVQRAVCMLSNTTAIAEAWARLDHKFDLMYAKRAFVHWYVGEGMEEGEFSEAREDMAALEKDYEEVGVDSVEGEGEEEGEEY
Experimental: as §1, §2, §3, §4

COC(=O)[C@H](CSC(C)=O)NC(C)=O [Aggrelyte-2, N,S-diacetyl-L-cysteine methyl ester]
Fold Change (Aggrelyte-2 vs Control) [Total Sum] [1]: 3.66
Aggrelyte-2 treated Area ([1]; lens of donor): 7.26E+05
Fold Change (Aggrelyte-2 vs Control) [Total Sum] ([2]; AlphaA-crystallin K70): 3.13
Aggrelyte-2 treated Area ([2]; AlphaA-crystallin K70): 8.80E+06
Fold Change (Aggrelyte-2 vs Control) [Total Sum] ([2]; AlphaA-crystallin K88): *
Aggrelyte-2 treated Area ([2]; AlphaA-crystallin K88): 1.11E+05
Aggrelyte-2 treated Area ([3]; Acetylated Bovine Serum Albumin Standard Spike at 200 ng in each sample (workup control), 17 peptides summed): 3.68E+07
Fold Change (Aggrelyte-2 vs Control) [Total Sum] ([3]; Actin cytoplasmic 1 K61): 3.48
Aggrelyte-2 treated Area ([3]; Actin cytoplasmic 1 K61, lens of donor): 7.63E+04
Fold Change (Aggrelyte-2 vs Control) [Total Sum] ([3]; Actin cytoplasmic 1 K213): 3.53
Aggrelyte-2 treated Area ([3]; Actin cytoplasmic 1 K213, lens of donor): 1.03E+05
Fold Change (Aggrelyte-2 vs Control) [Total Sum] ([3]; AlphaB-crystallin K72): 3.56
Aggrelyte-2 treated Area ([3]; AlphaB-crystallin K72, lens of donor): 6.31E+05
Fold Change (Aggrelyte-2 vs Control) [Total Sum] ([3]; AlphaB-crystallin K174): 7.41
Aggrelyte-2 treated Area ([3]; AlphaB-crystallin K174, lens of donor): 5.84E+06
Fold Change (Aggrelyte-2 vs Control) [Total Sum] ([3]; BetaB2-crystallin K42): 25.80
Aggrelyte-2 treated Area ([3]; BetaB2-crystallin K42, lens of donor): 6.98E+05
Fold Change (Aggrelyte-2 vs Control) [Total Sum] ([3]; Filensin K360): 3.94
Aggrelyte-2 treated Area ([3]; Filensin K360, lens of donor): 1.16E+05
Fold Change (Aggrelyte-2 vs Control) [Total Sum] ([3]; Glyceraldehyde-3-phosphate dehydrogenase K263): 3.18
Aggrelyte-2 treated Area ([3]; Glyceraldehyde-3-phosphate dehydrogenase K263, lens of donor): 1.04E+05
Fold Change (Aggrelyte-2 vs Control) [Total Sum] ([3]; Peroxiredoxin-6 K56): 3.26
Aggrelyte-2 treated Area ([3]; Peroxiredoxin-6 K56, lens of donor): 5.83E+05
Fold Change (Aggrelyte-2 vs Control) [Total Sum] ([3]; Phakinin K400): 14.48
Aggrelyte-2 treated Area ([3]; Phakinin K400, lens of donor): 2.21E+05
Fold Change (Aggrelyte-2 vs Control) [Total Sum] ([3]; Retinal dehydrogenase 1 K495): 9.12
Aggrelyte-2 treated Area ([3]; Retinal dehydrogenase 1 K495, lens of donor): 9.11E+04
Fold Change (Aggrelyte-2 vs Control) [Total Sum] [4]: *
Aggrelyte-2 treated Area ([4]; lens of donor): 4.24E+04
